Here are results for one molecule from PMC6597546, “Identification of a potent benzoxaborole drug candidate for treating cryptosporidiosis” (Nature Communications, 2019).

Molecules are shown by their SMILES.

The term IC50 denotes the midpoint of a concentration-inhibition curve. A high value points to weaker potency. In general, AUC(0-inf) refers to the area under the concentration-time curve extrapolated to infinity. A high value points to high exposure. The Cmax is the highest concentration seen after dosing. The term half-life denotes how long it takes for the measured level to halve. Low values mean rapid decline, high ones slow decline. Broadly, the bioavailability is the share of a dose that reaches the circulation, judged against a reference dose that is usually intravenous. What is called AUC is the area under the concentration-time curve, a measure of exposure. A higher AUC goes with more exposure. As a reminder, the Tmax is the time at which the peak concentration occurs. One may read the microsomal CLint as the capacity of the preparation to metabolise the compound, expressed as a volume cleared per time. By inhibition is commonly meant the percentage by which the read-out fell short of the control. A high value points to strong suppression.

One series can be described thus: Cytotoxicity Jurkat (3d). It is filed as cell-based. The following applies: human, Jurkat cells, 25 µM highest concentration tested.
Series [1] can be described thus: Single-dose oral and intravenous murine PK. It is filed as in vivo, female CD-1 mice. The conditions noted are these: female, mouse, plasma, CD-1 mice. The procedure:
(§1) Single-dose oral and intravenous murine PK studies were performed by WuXi Biologics (Wuxi, China) in female CD-1 mice in compliance with animal care guidelines. […] Single-dose oral calf PK studies were performed at the University of Vermont in compliance with animal care guidelines and with approval from the University of Vermont Institutional Animal Care and Use Committee. […] Doses were squirted into the calves’ mouths during interruptions in bottle feeding. Fecal samples were collected at the indicated times by manual anal stimulation. […] Fecal AN7973 was measured by extracting AN7973 from homogenized feces with acetonitrile. For this, feces were added to 4 volumes of acetonitrile (4 mL per g), mixed by vortexing for 5 min at room temperature, and then centrifuged. […] The fecal extraction method was validated with a standard curve of compound added to control feces. […] Non-compartmental analysis of the mean concentration-time profiles was performed using Phoenix version 6.4 (Pharsight Corporation, Mountain View, CA, USA). Concentrations below the limit of quantitation were assigned values of zero for generation of mean concentrations. Predictions of multidose exposures were generated by non-parametric superposition of the single-dose PK data using Phoenix version 6.4 (Supplementary Fig. 5).

A short description of the next series: Single-dose oral calf PK. The following applies: calves, oral 5 mg per kg. Type of series: in vivo, Holstein bull calves. The procedure: as §1
Series [2] concerns Escherichia coli and Salmonella typhimurium. Nature of the series: AMES bacterial reverse mutation assay. The conditions noted are these: five strains with and without S9, up to 5000 µg per plate. The procedure:
In vitro safety profiling studies were conducted by Ricerca Biosciences (Taipei, Taiwan) and WuXi AppTec (Suzhou, China). Ricerca performed a Lead Profiling and Adverse Reaction Enzyme panel of 109 off-target enzymes and receptors. This included the hERG K+ ion channel, which is associated with cardiac tachyarrhythmias, and used a radioligand binding competition format with 10 µM test compound for 1 h at 25 °C. For the enzyme and receptor panel, competitive inhibition at 10 µM of test compound was the most common assay format. The AMES bacterial reverse mutation assay detects point mutations in Escherichia coli and Salmonella typhimurium as an indicator of mutagenic activity. Bacterial strains were obtained from Molecular Toxicology (Boone, NC).

The nature of series [3]: Rat toxicokinetics (TK) study. Type of series: in vivo, Sprague-Dawley male rats. The following applies: for AUC / Cmax: po, 80 mg/kg.
Method: A repeated oral dose toxicity and separate toxicokinetics (TK) study were performed in male rats by WuXi AppTec Company (Suzhou, China). […] All rat studies were performed using ∼8-week-old Sprague-Dawley male rats (Rattus novegicus)/Crl: CD[SD] VAF/Plus weighing between 243.22 and 276.57 g at the start of compound dosing. […] Serum was collected from vehicle-control animals at 1 h and 4 h after dosing on days 1 and 7.
Series [4] is described as follows: Liver microsome Clint (human). Type of series: in vitro ADME. The following applies: liver microsomes. On the technique in general: Microsomes from liver hold many membrane-bound enzymes, among them those of drug oxidation.
The target in a further series is CYP2D6 (Homo sapiens, UniProt P10635). Nature of the series: CYP450 inhibition 2D6. Type of series: in vitro ADME.
Setting [5] is: 2 mg/kg, intravenous 2 mg per kg.
[6] abbreviates: male, Holstein, bovine, plasma, 5 mg/kg.
The mark [7] stands for this setting: male, Sprague-Dawley, rat, serum, rat, 80 mg·kg-1 oral once daily, Day 1.
The mark [8] stands for this setting: male, Sprague-Dawley, rat, serum, rat, 80 mg·kg-1 oral once daily, Day 7.

CYP2D6, sequence (P10635 whole entry): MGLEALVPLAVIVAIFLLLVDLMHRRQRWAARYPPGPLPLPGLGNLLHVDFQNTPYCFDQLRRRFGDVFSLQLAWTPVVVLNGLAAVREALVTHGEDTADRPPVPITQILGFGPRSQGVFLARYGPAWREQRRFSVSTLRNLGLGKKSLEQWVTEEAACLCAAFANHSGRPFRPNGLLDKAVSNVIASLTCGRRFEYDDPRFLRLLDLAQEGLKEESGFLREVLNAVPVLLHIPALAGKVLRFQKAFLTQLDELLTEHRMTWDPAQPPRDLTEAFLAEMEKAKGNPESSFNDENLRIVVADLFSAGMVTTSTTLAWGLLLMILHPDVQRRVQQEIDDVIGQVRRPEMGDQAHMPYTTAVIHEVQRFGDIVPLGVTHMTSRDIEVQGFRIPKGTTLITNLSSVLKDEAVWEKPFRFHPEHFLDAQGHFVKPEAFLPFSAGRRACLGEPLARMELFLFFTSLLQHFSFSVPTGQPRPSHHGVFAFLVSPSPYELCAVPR

The molecule `CC1(C)OB(O)c2cc(NC(=O)c3ccc(-n4cccn4)cc3Cl)ccc21` [AN7973] yielded an IC50 at 3 d in the series “Cytotoxicity Jurkat (3d)” of over 25 µM. In addition, the AUC(0-inf) was 49.7 µg·h/mL in series [1] (setting [5]); 92.7 µg·h/mL in series [1] (10 mg/kg, oral 10 mg per kg); 190 µg·h/mL in “Single-dose oral calf PK” (setting [6]). Further, the Cmax in series [1] (setting [5]) came out at 6820 ng/mL; in series [1] (10 mg/kg, oral 10 mg per kg), 8630 ng/mL; in the series “Single-dose oral calf PK” (setting [6]), 3570 ng/mL; in series [3] (setting [7]) it was 11600 ng/mL; in series [3] (setting [8]) it was 10100 ng/mL. The clearance in series [1] (setting [5]) was 0.667 mL/min/kg. Further, the half-life in series [1] (setting [5]) is 6 h; in series [1] (10 mg/kg, oral 10 mg per kg), 6.6 h; in the series “Single-dose oral calf PK” (male, Holstein, bovine, plasma, po, 5 mg/kg) it was 31 h; in series [3] (male, Sprague-Dawley, serum, rat, 80 mg·kg-1 oral once daily, Day 7) it was 22.7 h. Moreover, the bioavailability in series [1] (10 mg/kg, oral 10 mg per kg, read-out: bioavailability F) came out at 37%. Moreover, the t1/2 in the series “Single-dose oral calf PK” was determined as 31.1 h. In series [2], the “Ames test for mutagenic potential” value is recorded as “negative”. The compound accumulation result in series [3] (80 mg per kg once daily, 7 days) is recorded as “No compound accumulation was observed”. For the same molecule, the AUC came out at 170 µg·h/mL in series [3] (setting [7]) and 155 µg·h/mL in series [3] (setting [8]). In series [3] (male, Sprague-Dawley, serum, rat, 80 mg·kg-1 oral once daily, Day 1), the Tmax was 8 h. The microsomal CLint in series [4] is under 1 µL/min/mg. For the same molecule, at CYP2D6, the inhibition at 10 µM was 0%.
